Where “and” joins values, the source holds several entries; their conditions need not be identical. Identical values can stand only once. Toxic doses and inconclusive results are not listed. Rule as the data show it: active = T/C of 150% or more; inactive = T/C below 125%.
Tested on: L1210 leukemia ip in BDF1 mice, survival T/C
Assay: NCI In Vivo Anticancer Drug Screen. Data for tumor model L1210 Leukemia (intraperitoneal) in B6D2F1 (BDF1) mice
Settings: higher = longer survival
Summary of the method: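 Each compound was tested against a transplantable tumor grown in mice. The endpoint was survival, with treated animals benchmarked against vehicle controls as a simple ratio.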

[1] = endpoint: mean survival time, dose: 100.0 mg/kg/injection, schedule: Q01DX001 (ip), vehicle: saline
[2] = endpoint: mean survival time, dose: 100.0 mg/kg/injection, schedule: Q04DX003 (ip), vehicle: Klucel (hydroxypropylcellulose) (HPC)

Measured: T/C

CC(C)(C)C1CCC2(CC1)CCN(CCCN1CCCCCC1)CC2
inactive: endpoint: mean survival time, dose: 50.0 mg/kg/injection, schedule: Q01DX001 (ip), vehicle: saline 96 % of control | [1] 107 % of control

COc1cc2c(c(OC)c1OC)CCNC2
inactive: endpoint: mean survival time, dose: 5.0 mg/kg/injection, schedule: Q01DX001 (ip), vehicle: saline 100 % of control | endpoint: mean survival time, dose: 10.0 mg/kg/injection, schedule: Q01DX001 (ip), vehicle: saline 100 % of control | endpoint: mean survival time, dose: 20.0 mg/kg/injection, schedule: Q01DX001 (ip), vehicle: saline 100 % of control | endpoint: mean survival time, dose: 40.0 mg/kg/injection, schedule: Q01DX001 (ip), vehicle: saline 101 % of control

C[n+]1c2ccccc2c(Nc2ccc(NS(=O)(=O)CCCCN=C(N)N)cc2)c2ccc(N)cc21
active: endpoint: mean survival time, dose: 0.5 mg/kg/injection, schedule: Q03HX008 (ip), vehicle: water 167 % of control | endpoint: mean survival time, dose: 1.5 mg/kg/injection, schedule: Q01DX009 (ip), vehicle: water 186 % of control | endpoint: mean survival time, dose: 2.0 mg/kg/injection, schedule: Q03HX008 (ip), vehicle: water 160 % of control | endpoint: mean survival time, dose: 3.0 mg/kg/injection, schedule: Q01DX009 (ip), vehicle: water 160 % of control and 212 % of control | endpoint: mean survival time, dose: 3.0 mg/kg/injection, schedule: Q03HX008 (ip), vehicle: water 240 % of control | endpoint: mean survival time, dose: 3.12 mg/kg/injection, schedule: Q04DX003 (ip), vehicle: water 191 % of control | endpoint: mean survival time, dose: 6.0 mg/kg/injection, schedule: Q01DX009 (ip), vehicle: water 176 % of control and 218 % of control | endpoint: mean survival time, dose: 6.0 mg/kg/injection, schedule: Q03HX008 (ip), vehicle: water 327 % of control | endpoint: mean survival time, dose: 6.25 mg/kg/injection, schedule: Q04DX003 (ip), vehicle: water 152 % of control and 170 % of control | endpoint: mean survival time, dose: 12.0 mg/kg/injection, schedule: Q01DX009 (ip), vehicle: water 269 % of control | endpoint: mean survival time, dose: 12.5 mg/kg/injection, schedule: Q01DX001 (ip), vehicle: water 186 % of control | endpoint: mean survival time, dose: 12.5 mg/kg/injection, schedule: Q04DX003 (ip), vehicle: water 171 % of control and 202 % of control | endpoint: mean survival time, dose: 25.0 mg/kg/injection, schedule: Q01DX001 (ip), vehicle: water 207 % of control | endpoint: mean survival time, dose: 25.0 mg/kg/injection, schedule: Q04DX003 (ip), vehicle: water 194 % of control and 225 % of control | endpoint: median survival time, dose: 6.0 mg/kg/injection, schedule: Q01DX009 (sc), vehicle: water 166 % of control | endpoint: median survival time, dose: 12.0 mg/kg/injection, schedule: Q01DX009 (sc), vehicle: water 163 % of control
inactive: endpoint: median survival time, dose: 3.0 mg/kg/injection, schedule: Q01DX009 (oral), vehicle: water 97 % of control | endpoint: median survival time, dose: 6.0 mg/kg/injection, schedule: Q01DX009 (oral), vehicle: water 103 % of control | endpoint: median survival time, dose: 12.0 mg/kg/injection, schedule: Q01DX009 (oral), vehicle: water 98 % of control | endpoint: median survival time, dose: 24.0 mg/kg/injection, schedule: Q01DX009 (oral), vehicle: water 94 % of control | endpoint: median survival time, dose: 48.0 mg/kg/injection, schedule: Q01DX009 (oral), vehicle: water 95 % of control

C=CCSCC(=O)c1ccccc1
inactive: endpoint: mean survival time, dose: 50.0 mg/kg/injection, schedule: Q01DX009 (ip), vehicle: Klucel (hydroxypropylcellulose) (HPC) 90 % of control | endpoint: mean survival time, dose: 100.0 mg/kg/injection, schedule: Q01DX009 (ip), vehicle: Klucel (hydroxypropylcellulose) (HPC) 94 % of control | [2] 101 % of control | endpoint: mean survival time, dose: 200.0 mg/kg/injection, schedule: Q01DX009 (ip), vehicle: Klucel (hydroxypropylcellulose) (HPC) 90 % of control | endpoint: mean survival time, dose: 200.0 mg/kg/injection, schedule: Q04DX003 (ip), vehicle: Klucel (hydroxypropylcellulose) (HPC) 97 % of control | endpoint: mean survival time, dose: 400.0 mg/kg/injection, schedule: Q04DX003 (ip), vehicle: Klucel (hydroxypropylcellulose) (HPC) 100 % of control

NC(=O)N1CCN(CCCN2c3ccccc3Sc3cc(Cl)ccc32)CC1
inactive: endpoint: mean survival time, dose: 6.25 mg/kg/injection, schedule: Q01DX009 (ip), vehicle: Klucel (hydroxypropylcellulose) (HPC) 95 % of control | endpoint: mean survival time, dose: 12.5 mg/kg/injection, schedule: Q01DX009 (ip), vehicle: Klucel (hydroxypropylcellulose) (HPC) 110 % of control | endpoint: mean survival time, dose: 25.0 mg/kg/injection, schedule: Q01DX009 (ip), vehicle: Klucel (hydroxypropylcellulose) (HPC) 115 % of control | endpoint: mean survival time, dose: 25.0 mg/kg/injection, schedule: Q04DX003 (ip), vehicle: Klucel (hydroxypropylcellulose) (HPC) 113 % of control | endpoint: mean survival time, dose: 50.0 mg/kg/injection, schedule: Q04DX003 (ip), vehicle: Klucel (hydroxypropylcellulose) (HPC) 109 % of control | [2] 115 % of control

C=COCCN1C(=O)c2ccccc2C1=O
inactive: endpoint: mean survival time, dose: 100.0 mg/kg/injection, schedule: Q04DX002 (ip), vehicle: Klucel (hydroxypropylcellulose) (HPC) 102 % of control | endpoint: mean survival time, dose: 200.0 mg/kg/injection, schedule: Q04DX002 (ip), vehicle: Klucel (hydroxypropylcellulose) (HPC) 120 % of control | endpoint: mean survival time, dose: 400.0 mg/kg/injection, schedule: Q04DX002 (ip), vehicle: Klucel (hydroxypropylcellulose) (HPC) 106 % of control

COc1ccc(CN(CC(=O)O)S(C)(=O)=O)cc1
inactive: endpoint: mean survival time, dose: 100.0 mg/kg/injection, schedule: Q01DX009 (ip), vehicle: other 110 % of control | endpoint: mean survival time, dose: 100.0 mg/kg/injection, schedule: Q04DX003 (ip), vehicle: other 90 % of control | endpoint: mean survival time, dose: 200.0 mg/kg/injection, schedule: Q01DX009 (ip), vehicle: other 107 % of control | endpoint: mean survival time, dose: 200.0 mg/kg/injection, schedule: Q04DX003 (ip), vehicle: other 98 % of control | endpoint: mean survival time, dose: 400.0 mg/kg/injection, schedule: Q01DX009 (ip), vehicle: other 111 % of control | endpoint: mean survival time, dose: 400.0 mg/kg/injection, schedule: Q04DX003 (ip), vehicle: other 95 % of control

O=c1[nH]cnc2ncn(Cc3ccccc3)c12
inactive: endpoint: mean survival time, dose: 12.5 mg/kg/injection, schedule: Q04DX002 (ip), vehicle: Klucel (hydroxypropylcellulose) (HPC) 115 % of control | endpoint: mean survival time, dose: 25.0 mg/kg/injection, schedule: Q04DX002 (ip), vehicle: Klucel (hydroxypropylcellulose) (HPC) 88 % of control | endpoint: mean survival time, dose: 50.0 mg/kg/injection, schedule: Q04DX002 (ip), vehicle: Klucel (hydroxypropylcellulose) (HPC) 102 % of control

NC(N)=N/N=C/C(=N\N=C(N)N)C(F)(F)F
inactive: endpoint: mean survival time, dose: 15.0 mg/kg/injection, schedule: Q01DX Z (ip), vehicle: saline 102 % of control | endpoint: mean survival time, dose: 30.0 mg/kg/injection, schedule: Q01DX Z (ip), vehicle: saline 98 % of control | endpoint: mean survival time, dose: 60.0 mg/kg/injection, schedule: Q01DX Z (ip), vehicle: saline 101 % of control and 108 % of control | endpoint: mean survival time, dose: 120.0 mg/kg/injection, schedule: Q01DX Z (ip), vehicle: saline 93 % of control and 106 % of control | endpoint: mean survival time, dose: 120.0 mg/kg/injection, schedule: Q01DX Z (oral), vehicle: saline 96 % of control | endpoint: mean survival time, dose: 240.0 mg/kg/injection, schedule: Q01DX Z (ip), vehicle: saline 98 % of control | endpoint: mean survival time, dose: 240.0 mg/kg/injection, schedule: Q01DX Z (oral), vehicle: saline 104 % of control | endpoint: mean survival time, dose: 480.0 mg/kg/injection, schedule: Q01DX Z (oral), vehicle: saline 98 % of control | endpoint: mean survival time, dose: 960.0 mg/kg/injection, schedule: Q01DX Z (oral), vehicle: saline 98 % of control

CCCN(C)/N=N/c1[nH]ncc1C(N)=O
active: endpoint: mean survival time, dose: 66.0 mg/kg/injection, schedule: Q01DX009 (ip), vehicle: saline with Tween-80 178 % of control | endpoint: mean survival time, dose: 100.0 mg/kg/injection, schedule: Q01DX009 (ip), vehicle: saline with Tween-80 188 % of control
inactive: endpoint: mean survival time, dose: 100.0 mg/kg/injection, schedule: Q01DX001 (ip), vehicle: saline with Tween-80 113 % of control | endpoint: mean survival time, dose: 200.0 mg/kg/injection, schedule: Q01DX001 (ip), vehicle: saline with Tween-80 115 % of control | endpoint: mean survival time, dose: 200.0 mg/kg/injection, schedule: Q01DX009 (ip), vehicle: saline with Tween-80 120 % of control | endpoint: mean survival time, dose: 200.0 mg/kg/injection, schedule: Q04DX003 (ip), vehicle: saline with Tween-80 116 % of control | endpoint: mean survival time, dose: 400.0 mg/kg/injection, schedule: Q01DX001 (ip), vehicle: saline with Tween-80 109 % of control | endpoint: mean survival time, dose: 400.0 mg/kg/injection, schedule: Q04DX003 (ip), vehicle: saline with Tween-80 94 % of control

CCOc1ccccc1/C=N/N=C(N)N
inactive: endpoint: mean survival time, dose: 63.0 mg/kg/injection, schedule: Q01DX Z (ip), vehicle: carboxymethylcellulose (CMC) 95 % of control | endpoint: mean survival time, dose: 125.0 mg/kg/injection, schedule: Q01DX Z (ip), vehicle: carboxymethylcellulose (CMC) 95 % of control

Cc1cc(S(=O)(=O)c2ccccc2)c(C)s1
inactive: endpoint: mean survival time, dose: 50.0 mg/kg/injection, schedule: Q01DX009 (ip), vehicle: saline 91 % of control | endpoint: mean survival time, dose: 50.0 mg/kg/injection, schedule: Q04DX003 (ip), vehicle: acetone 96 % of control | [1] 98 % of control | endpoint: mean survival time, dose: 100.0 mg/kg/injection, schedule: Q01DX009 (ip), vehicle: saline 89 % of control | endpoint: mean survival time, dose: 100.0 mg/kg/injection, schedule: Q04DX003 (ip), vehicle: acetone 96 % of control | endpoint: mean survival time, dose: 200.0 mg/kg/injection, schedule: Q01DX001 (ip), vehicle: saline 101 % of control | endpoint: mean survival time, dose: 200.0 mg/kg/injection, schedule: Q01DX009 (ip), vehicle: saline 94 % of control | endpoint: mean survival time, dose: 200.0 mg/kg/injection, schedule: Q04DX003 (ip), vehicle: acetone 94 % of control

— PubChem BioAssay AID248 (DTP/NCI, 2004)
